This passage reports melting point results from patent US7674810B2, “1,1-dioxo-1H-1Λ6-benzo[d]isothiazol-3-yl)-4-hydroxy-1,5-dihydro-pyrrol-2-one inhibitors of HCV polymerase” (Roche Palo Alto LLC, priority 2006, dated 2010).

For orientation: melting point means the temperature of the solid-liquid transition.

Where only a bound is given, the exact number is not on record here.

Take `O=C1C(C2=NS(=O)(=O)c3ccccc32)=C(O)[C@H](C2CCCCC2)N1Cc1ccc(F)cc1.[Na]`: the melting point was 235 to 238 °C. Then `CC(C)(C)[C@H]1C(O)=C(C2=NS(=O)(=O)c3ccccc32)C(=O)N1Cc1ccc(=O)[nH]c1`, with 149 to 190 °C; and `CC(C)(C)[C@H]1C(O)=C(C2=NS(=O)(=O)c3c2cccc3-c2cncnc2)C(=O)N1Cc1ccc(F)cc1`, with > 250 °C. Then `CC(C)C[C@@H]1C(O)=C(C2=NS(=O)(=O)c3ccccc32)C(=O)N1Cc1ccc(F)cc1`, with 200 °C (dec.); and `CC(C)(C)[C@H]1C(O)=C(C2=NS(=O)(=O)c3c(CNS(=O)(=O)c4ccccc4)cccc32)C(=O)N1Cc1ccc(F)cc1`, with 96 to 112 °C. With `CC(C)CC1C(O)=C(C2=NS(=O)(=O)c3ccccc32)C(=O)N1Cc1ccc(F)cc1` (centres unmarked) the figure was 200 °C (dec.); with `CC(C)(C)[C@H]1C(O)=C(C2=NS(=O)(=O)c3ccccc32)C(=O)N1Cc1cccs1`, 105 to 123 °C. Consider `CNC(=O)NCc1cccc2c1S(=O)(=O)N=C2C1=C(O)[C@H](C(C)(C)C)N(Cc2ccc(F)cc2)C1=O`, for which the melting point is > 250 °C.

For the compound `CS(=O)(=O)Nc1cccc2c1S(=O)(=O)N=C2c1nc(Cc2ccc(F)cc2)c2ccccc2c1O`, the melting point was > 275 °C. With `CC(C)(C)[C@H]1C(O)=C(C2=NS(=O)(=O)c3c(CNS(=O)(=O)N4CCCC4)cccc32)C(=O)N1Cc1ccc(F)cc1` the figure was 112 to 125 °C; with `Cc1cc(CN2C(=O)C(C3=NS(=O)(=O)c4c(CNS(=O)(=O)N5CCNCC5)cccc43)=C(O)[C@@H]2C(C)(C)C)ccc1F.O=C(O)C(F)(F)F`, 135 to 151 °C. Then `CCOC(=O)CNc1cccc2c1S(=O)(=O)N=C2C1=C(O)[C@H](C(C)(C)C)N(Cc2ccc(F)cc2)C1=O`, with 148 to 152 °C; and `O=C1C(C2=NS(=O)(=O)c3ccccc32)=C(O)[C@H](C2CCCCC2)N1Cc1ccccc1`, with 104 to 106 °C; and `CC(C)(C)C1C(O)=C(C2=NS(=O)(=O)c3c(Cl)cccc32)C(=O)N1Cc1ccc(F)cc1` (centres unmarked), with 179 to 213 °C. Turning to `CNC(=O)COc1cccc2c1S(=O)(=O)N=C2C1=C(O)[C@H](C(C)(C)C)N(Cc2ccc(F)cc2)C1=O`, the melting point was > 210 °C. Compound `CC(C)(C)[C@H]1C(O)=C(C2=NS(=O)(=O)c3ccccc32)C(=O)N1CCC1CC1` had a melting point of 135 to 140 °C. With `CC(C)(C)[C@H]1C(O)=C(C2=NS(=O)(=O)c3c(CNS(C)(=O)=O)cccc32)C(=O)N1CCC1CCCC1` the figure was 74 to 86 °C. With `CC(C)(C)[C@H]1C(O)=C(C2=NS(=O)(=O)c3c2ccc2ccccc32)C(=O)N1Cc1ccc(F)cc1` the figure was 205 °C (dec.); with `COc1cc(CN2C(=O)C(C3=NS(=O)(=O)c4ccccc43)=C(O)[C@@H]2C(C)(C)C)ccc1F`, 92 to 104 °C.

Turning to `CC(C)(C)C1C(O)=C(C2=NS(=O)(=O)c3ccccc32)C(=O)N1Cc1ccc(F)cc1` (centres unmarked), the melting point is > 220 °C. With `COc1ncc(-c2cccc3c2S(=O)(=O)N=C3C2=C(O)[C@H](C(C)(C)C)N(Cc3ccc(F)cc3)C2=O)cn1` the figure was > 250 °C; with `CC(C)(C)[C@H]1C(O)=C(C2=NS(=O)(=O)c3c(CCS(C)(=O)=O)cccc32)C(=O)N1Cc1ccc(F)cc1`, 127 to 135 °C; with `CC(C)(C)[C@H]1C(O)=C(C2=NS(=O)(=O)c3c(N)cccc32)C(=O)N1Cc1ccc(F)cc1`, 155 to 160 °C. Then `O=S1(=O)N=C(c2nc(NCC3CC3)c3ccccc3c2O)c2ccccc21`, with 270 to 272 °C; and `Cc1ccc2c(Cc3ccc(F)cc3)nc(C3=NS(=O)(=O)c4ccccc43)c(O)c2c1`, with > 275 °C.

Compound `CS(=O)(=O)NCc1cccc2c1S(=O)(=O)N=C2C1=C(O)[C@H](C2CCCCC2)N(Cc2ccc(F)cc2)C1=O` displayed a melting point of 130 to 137 °C. As to `O=S1(=O)N=C(c2nc(Cc3ccc(F)cc3)c3ccc(F)cc3c2O)c2cccc(Cl)c21`, the melting point is > 275 °C. Turning to `CCc1cc(CN2C(=O)C(C3=NS(=O)(=O)c4ccccc43)=C(O)[C@@H]2C(C)(C)C)ccc1F`, the melting point was in the range of 205 to 210 °C. With `CC(C)(C)[C@H]1C(O)=C(C2=NS(=O)(=O)c3c2cccc3-c2cccc(=O)[nH]2)C(=O)N1Cc1ccc(F)cc1` the figure was > 250 °C; with `CC(C)(C)[C@H]1C(O)=C(C2=NS(=O)(=O)c3c(CS(N)(=O)=O)cccc32)C(=O)N1Cc1ccc(F)cc1`, 159 to 173 °C; with `CS(=O)(=O)Nc1cccc(-c2cccc3c2S(=O)(=O)N=C3c2nc(Cc3ccc(F)cc3)c3ccccc3c2O)c1`, > 275 °C. Then `COc1ccc(-c2cccc3c2S(=O)(=O)N=C3c2nc(Cc3ccc(F)cc3)c3ccccc3c2O)cn1`, with 194 to 196 °C; and `CN(Cc1cccc2c1S(=O)(=O)N=C2C1=C(O)[C@H](C(C)(C)C)N(Cc2ccc(F)cc2)C1=O)S(=O)(=O)N1CCNCC1.O=C(O)C(F)(F)F`, with 113 to 128 °C; and `CC(C)(C)[C@H]1C(O)=C(C2=NS(=O)(=O)c3c(NS(C)(=O)=O)cccc32)C(=O)N1Cc1ccc(F)cc1`, with 245 to 250 °C. With `CC(C)(C)C1C(O)=C(C2=NS(=O)(=O)c3c(OCC(N)=O)cccc32)C(=O)N1Cc1ccc(F)cc1` (centres unmarked) the figure was > 250 °C; with `Cc1nc(S(=O)(=O)NCc2cccc3c2S(=O)(=O)N=C3C2=C(O)[C@H](C(C)(C)C)N(Cc3ccc(F)cc3)C2=O)cn1C.O=C(O)C(F)(F)F`, 110 to 116 °C; with `CC(C)C[C@H]1C(O)=C(C2=NS(=O)(=O)c3ccccc32)C(=O)N1Cc1ccc(F)cc1`, 200 °C (dec.).

On to `CS(=O)(=O)Nc1ccc2c(c1)S(=O)(=O)N=C2c1nc(Cc2ccc(F)cc2)c2ccccc2c1O`, for which the melting point is > 275 °C. Then `CC(C)(C)[C@H]1C(O)=C(C2=NS(=O)(=O)c3c(CNS(=O)(=O)N4CC[C@H](O)C4)cccc32)C(=O)N1Cc1ccc(F)cc1`, with > 250 °C; and `CC(C)(C)[C@H]1C(O)=C(C2=NS(=O)(=O)c3c(CNS(=O)(=O)N4CCOCC4)cccc32)C(=O)N1Cc1ccc(F)cc1`, with 118 to 129 °C; and `CN(c1ccc(F)cc1)c1nc(C2=NS(=O)(=O)c3ccccc32)c(O)c2ccccc12`, with 215 to 217 °C. With `CCC(=O)N(Cc1cccc2c1S(=O)(=O)N=C2C1=C(O)[C@H](C(C)(C)C)N(Cc2ccc(F)c(C)c2)C1=O)S(C)(=O)=O` the figure was 98 to 99.8 °C; with `CN(C)S(=O)(=O)Oc1cccc2c1S(=O)(=O)N=C2C1=C(O)[C@H](C(C)(C)C)N(Cc2ccc(F)cc2)C1=O`, 116 to 126 °C.

With `Cc1cccc2c1S(=O)(=O)N=C2C1=C(O)[C@H](C(C)(C)C)N(Cc2ccc(F)cc2)C1=O`, the melting point was > 250 °C. `CN(C)S(=O)(=O)N(C)Cc1cccc2c1S(=O)(=O)N=C2C1=C(O)[C@H](C(C)(C)C)N(Cc2ccc(F)cc2)C1=O` returned a melting point of 109 to 115 °C. The compound `O=S1(=O)N=C(c2nc(Cc3ccc(F)cc3)c3ccccc3c2O)c2cccc(N3CCOCC3)c21` returned a melting point of 259 to 261 °C. Then `O=S1(=O)N=C(c2nc(Cc3ccc(F)cc3)c3ccccc3c2O)c2cccc(-c3ccc(F)cc3)c21`, with > 275 °C.
